Measurements as given in BigSolDB 2.1.

CC1(N=C(O)c2ccccc2)CCC2CC1C(c1ccccc1)=[NH+]C2(C)C.[O-][Cl+3]([O-])([O-])[O-] (stereo not given)
solubility (mole fraction)
Settings	298.15 K	303.15 K	308.15 K	313.15 K	318.15 K
in 2-ethoxyethanol	0.00256	0.00297	0.00348	0.0041	0.0048
in acetone	0.00275	0.00308	0.00363	0.00425	0.00495
in acetonitrile	0.00307	0.0035	0.00421	0.00488	0.00572
in acrylonitrile	0.00592	0.00661	0.00743	0.00856	0.0104
in ethanol	0.0015	0.00182	0.00223	0.00264	0.00316
in isopropanol	0.000845	0.00103	0.00132	0.00163	0.00199
in methanol	0.00289	0.00327	0.0038	0.00445	0.00534
in n-butanol	0.000928	0.00113	0.00146	0.00178	0.00221
in n-propanol	0.0013	0.0016	0.00193	0.00232	0.00288
in propionitrile	0.00186	0.00215	0.00254	0.00305	0.00346
in propylene glycol	0.0122	0.0132	0.0147	0.0164	0.0187
in water	3.8e-05	5.7e-05	7.7e-05	9.9e-05	0.000115

CC(=O)NC1(C)CCC2CC1C(C)=NC2(C)C (stereo not given)
solubility (mole fraction)
Settings	298.15 K	303.15 K	308.15 K	313.15 K	318.15 K
in 2-ethoxyethanol	0.00185	0.00217	0.00248	0.00282	0.00322
in acetone	0.00359	0.00388	0.00411	0.00445	0.00493
in acetonitrile	0.0257	0.0265	0.0275	0.0292	0.0305
in acrylonitrile	0.00442	0.00458	0.00487	0.00528	0.00581
in ethanol	0.00153	0.00184	0.00211	0.00244	0.00284
in isopropanol	0.00134	0.00155	0.00182	0.00214	0.00243
in methanol	0.00945	0.0103	0.0111	0.0122	0.0142
in n-butanol	0.00138	0.00164	0.00191	0.00219	0.00257
in n-propanol	0.00144	0.00171	0.00196	0.00228	0.00264
in propionitrile	0.00392	0.00416	0.0044	0.00477	0.00526
in propylene glycol	0.0197	0.0206	0.022	0.0232	0.0251
in water	0.0012	0.00142	0.0016	0.00182	0.0021
